The source of these data is patent publication US8455533B2, “Aminotetrahydropyrans as dipeptidyl peptidase-IV inhibitors for the treatment or prevention of diabetes” (Merck Sharp & Dohme Corp., priority 2009, dated 2013).

Structures can show the parent of a compound that is named as a salt.

The target in the first test is DPP-4 (Homo sapiens, UniProt P27487).
Chain of DPP-4 (P27487 39-766 limits assumed, species assumed): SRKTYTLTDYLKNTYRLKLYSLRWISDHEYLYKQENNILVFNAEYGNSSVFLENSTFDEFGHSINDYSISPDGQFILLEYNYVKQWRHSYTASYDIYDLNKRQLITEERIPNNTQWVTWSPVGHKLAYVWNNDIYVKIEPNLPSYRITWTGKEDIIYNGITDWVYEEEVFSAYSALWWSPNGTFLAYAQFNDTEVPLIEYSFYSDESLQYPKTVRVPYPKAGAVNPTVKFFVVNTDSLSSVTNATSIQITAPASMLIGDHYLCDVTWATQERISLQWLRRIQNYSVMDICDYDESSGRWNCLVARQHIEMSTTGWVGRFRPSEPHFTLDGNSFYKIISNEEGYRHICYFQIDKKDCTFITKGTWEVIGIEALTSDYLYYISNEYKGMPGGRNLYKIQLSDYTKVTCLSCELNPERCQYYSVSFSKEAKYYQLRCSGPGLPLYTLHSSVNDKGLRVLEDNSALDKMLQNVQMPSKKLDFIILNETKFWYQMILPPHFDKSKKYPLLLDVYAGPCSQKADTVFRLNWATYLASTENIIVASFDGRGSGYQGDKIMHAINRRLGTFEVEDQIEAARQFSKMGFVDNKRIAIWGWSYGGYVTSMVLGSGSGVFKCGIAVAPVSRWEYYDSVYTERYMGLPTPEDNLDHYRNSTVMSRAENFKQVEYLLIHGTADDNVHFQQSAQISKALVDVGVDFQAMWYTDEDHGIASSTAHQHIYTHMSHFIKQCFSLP
Test: not given
Particulars: cited from earlier work.
In the case of diprotin A, the “degradation of GRF in plasma to GRF[3-44]” value is listed as “prevented”.

The next test relates to hematopoiesis.
Test: not given
Particulars: mouse, cyclophosphamide-induced neutropenia; WO 99/56753; cited from earlier work.
For `CC(C)[C@H](N)C(=O)N1CCC[C@H]1B(O)O` [Val-Boro-Pro], the hematopoiesis result was “stimulated hematopoiesis”.

The target in a further test is T1, dipeptidyl peptidase-IV enzyme (DPP-4) (Homo sapiens, UniProt P27487).
T1 construct: The enzyme used in these studies was soluble (transmembrane domain and cytoplasmic extension excluded) human protein; made in house; host or cells: baculovirus expression system (Bac-To-Bac, Gibco BRL)
T1 sequence (P27487 29-766 limits assumed): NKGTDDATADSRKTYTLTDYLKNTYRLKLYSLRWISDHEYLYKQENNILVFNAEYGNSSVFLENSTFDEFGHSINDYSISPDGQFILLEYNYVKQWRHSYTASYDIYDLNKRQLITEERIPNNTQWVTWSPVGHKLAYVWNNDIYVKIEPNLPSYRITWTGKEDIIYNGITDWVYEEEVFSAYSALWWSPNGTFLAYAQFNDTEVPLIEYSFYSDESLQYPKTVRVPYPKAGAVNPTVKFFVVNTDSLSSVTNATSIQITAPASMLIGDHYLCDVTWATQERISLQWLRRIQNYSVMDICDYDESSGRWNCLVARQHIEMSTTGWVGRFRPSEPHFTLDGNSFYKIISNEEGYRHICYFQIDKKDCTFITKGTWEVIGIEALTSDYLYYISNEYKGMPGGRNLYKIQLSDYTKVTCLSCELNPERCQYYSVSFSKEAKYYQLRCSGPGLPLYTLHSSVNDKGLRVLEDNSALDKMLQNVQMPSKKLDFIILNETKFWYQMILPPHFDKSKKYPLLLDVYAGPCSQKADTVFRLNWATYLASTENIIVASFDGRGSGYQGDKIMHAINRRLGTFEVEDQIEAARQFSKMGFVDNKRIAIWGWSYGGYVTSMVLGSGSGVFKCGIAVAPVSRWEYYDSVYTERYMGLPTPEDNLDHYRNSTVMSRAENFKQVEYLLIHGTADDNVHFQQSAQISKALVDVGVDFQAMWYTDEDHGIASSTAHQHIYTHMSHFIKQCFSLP
The experiment in a line: DPP-4 inhibition, continuous fluorometric assay with substrate Gly-Pro-AMC. It is filed as biochemical. Particulars: soluble human DPP-4, 50 μM Gly-Pro-AMC, pH 7.5, room temperature. As to the method:
Inhibition constants are determined as follows. A continuous fluorometric assay is employed with the substrate Gly-Pro-AMC, which is cleaved by DPP-4 to release the fluorescent AMC leaving group. […] A typical reaction contains approximately 50 pM enzyme, 50 μM Gly-Pro-AMC, and buffer (100 mM HEPES, pH 7.5, 0.1 mg/mL BSA) in a total reaction volume of 100 μL. Liberation of AMC is monitored continuously in a 96-well plate fluorometer using an excitation wavelength of 360 nm and an emission wavelength of 460 nm. Under these conditions, approximately 0.8 μM AMC is produced in 30 min at 25 degrees C. The enzyme used in these studies was soluble (transmembrane domain and cytoplasmic extension excluded) human protein produced in a baculovirus expression system (Bac-To-Bac, Gibco BRL). […] To measure the dissociation constants for compounds, solutions of inhibitor in DMSO were added to reactions containing enzyme and substrate (final DMSO concentration is 1%). All experiments were conducted at room temperature using the standard reaction conditions described above. To determine the dissociation constants (Ki), reaction rates were fit by non-linear regression to the Michaelis-Menton equation for competitive inhibition. The errors in reproducing the dissociation constants are typically less than two-fold.
The term IC50 denotes the point on the concentration scale where inhibition reaches its midpoint. `N[C@H]1C[C@@H](N2Cc3cn(CC(=O)O)nc3C2)CO[C@@H]1c1cc(F)ccc1F` [Example 3, {5-[(3R,5S,6R)-5-amino-6-(2,5-difluorophenyl)tetrahydro-2H-pyran-3-yl]-5,6-dihydropyrrolo[3,4-c]pyrazol-2(4H)-yl}acetic acid hydrochloride salt] had an IC50 of 9.4 nM. `CC(C)(O)Cn1cc2c(n1)CN([C@H]1CO[C@H](c3cc(F)ccc3F)[C@@H](N)C1)C2` [Example 5, 1-{5-[(3R,5S,6R)-5-amino-6-(2,5-difluorophenyl)tetrahydro-2H-pyran-3-yl]-5,6-dihydropyrrolo[3,4-c]pyrazol-2(4H)-yl}-2-methylpropan-2-ol] registered an IC50 of 9.3 nM. `NC(=O)Cn1cc2c(n1)CN([C@H]1CO[C@H](c3cc(F)c(F)cc3F)[C@@H](N)C1)C2` [Example 8] gave an IC50 of 8.9 nM. Same read-out and setting: in the case of `N#Cc1[nH]nc2c1CN([C@H]1CO[C@H](c3cc(F)ccc3F)[C@@H](N)C1)C2` [Example 13] it was 0.89 nM; in that of `NC(=O)Cn1cc2c(n1)CN([C@H]1CO[C@H](c3cc(F)ccc3F)[C@@H](N)C1)C2` [Example 1, 2-{5-[(3R,5S,6R)-5-amino-6-(2,5-difluorophenyl)tetrahydro-2H-pyran-3-yl]-5,6-dihydropyrrolo[3,4-c]pyrazol-2(4H)-yl}acetamide], 6.8 nM. Still for that read-out and setting: as for `NC(=O)Cn1ncc2c1CN([C@H]1CO[C@H](c3cc(F)c(F)cc3F)[C@@H](N)C1)C2` [Example 9], the figure is 7.4 nM; as for `N[C@H]1C[C@@H](N2Cc3cn(CCO)nc3C2)CO[C@@H]1c1cc(F)ccc1F` [Example 4, 2-{5-[(3R,5S,6R)-5-amino-6-(2,5-difluorophenyl)tetrahydro-2H-pyran-3-yl]-5,6-dihydropyrrolo[3,4-c]pyrazol-2(4H)-yl}ethanol], 11 nM; as for `CC(C)(O)Cn1ncc2c1CN([C@H]1CO[C@H](c3cc(F)c(F)cc3F)[C@@H](N)C1)C2` [Example 12], 9.2 nM. The same measure, in the same setting: as for `CC(C)(O)Cn1ncc2c1CN([C@H]1CO[C@H](c3cc(F)ccc3F)[C@@H](N)C1)C2` [Example 6, 1-{5-[(3R,5S,6R)-5-amino-6-(2,5-difluorophenyl)tetrahydro-2H-pyran-3-yl]-5,6-dihydropyrrolo-[3,4-c]pyrazol-1(4H)-yl}-2-methylpropan-2-ol], the figure is 4 nM; as for `NC(=O)Cn1ncc2c1CN([C@H]1CO[C@H](c3cc(F)ccc3F)[C@@H](N)C1)C2` [Example 7], 7.5 nM. In the case of `COC(=O)Cn1cc2c(n1)CN([C@H]1CO[C@H](c3cc(F)ccc3F)[C@@H](N)C1)C2` [Example 2, Methyl {5-[(3R,5S,6R)-5-amino-6-(2,5-difluorophenyl)tetrahydro-2H-pyran-3-yl]-5,6-dihydropyrrolo[3,4-c]pyrazol-2(4B)-yl}acetate], the midpoint of inhibition, the IC50, lay at 8.1 nM.

Compound `COC(=O)Cn1cc2c(n1)CN([C@H]1CO[C@H](c3cc(F)c(F)cc3F)[C@@H](N)C1)C2` [Example 10] came in with an IC50 of 12 nM.

In turn, `N[C@H]1C[C@@H](N2Cc3n[nH]c(-c4nnn[nH]4)c3C2)CO[C@@H]1c1cc(F)ccc1F` [Example 14] came in with an IC50 of 0.6 nM.

The next test has as its system cardiac allograft survival.
Test: not given
Particulars: rats; survival from day 7 to day 14; Transplantation 63:1495-1500 (1997); cited from earlier work.
`CC(C)N1CCC(c2ccccc2)(c2ccccc2)CC1` [Prodipine, Pro-Pro-diphenyl-phosphonate]: the cardiac allograft survival result was “double cardiac allograft survival”.
